Test results from PMC9099682 (2022).

Columns and labels:
[1] = tested on: Pu22 (DNA, G4) TGAGGGTGGGTAGGGTGGGTAA; experiment: CD melting at 265 nm; conditions: K+ 4.5 mM, Na+ (137 mM NaCl, 10 mM Na2HPO4); PBS pH 7.4; 125 µM tPD, 2.5 µM DNA (50 equiv.); Tm 62 to 64 °C
[2] = tested on: Pu22 (DNA, G4) TGAGGGTGGGTAGGGTGGGTAA; experiment: CD spectroscopy; conditions: K+ 4.5 mM, Na+ (137 mM NaCl, 10 mM Na2HPO4); PBS pH 7.4, 40 °C; 125 µM tPD, 2.5 µM DNA; CD band increase at 263 nm

- ΔTm [1]: +2 °C
- binding [2]: yes
Compound: OC[C@H]1O[C@@H](Oc2cc(O)cc(/C=C/c3ccc(O)cc3)c2)[C@H](O)[C@@H](O)[C@@H]1O
